This note sets out measurements from US7977364B2, “Indazoles, benzisoxazoles and benzisothiazoles and their use as estrogenic agents” (Laboratoire Thermamex, priority 2004, dated 2011).

For data set [1], the system named is ovariectomized rats. As to conditions: rat, in vivo.
A further data set concerns Prepubescent female rats. In words: Estrogenic / uterotrophic activity in vivo (uterus wet weight). More on the design: species or system rat. To be noted: for change in vivo at 3 mg: orally 3 mg/rat/day for 3 days. In short, it runs like this: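 Prepubescent female rats dosed orally for 3 days at 3 mg/rat/day, or at 0.3, 1, 3 or 10 mg/rat/day. Uteri removed the following day and wet-weighed; values given as % stimulation of uterine weight over vehicle.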

The target of data set [2] is purified full-length recombinant human ERβ (Homo sapiens, UniProt Q92731). In words: Estrogen receptor β competitive radiometric binding assay ([3H]-E2).
Protocol: Relative binding affinities (RBA) were determined by competitive radiometric binding assays, using purified full-length recombinant human ERα and ERβ (PanVera, Madison, Wis.). […] After shaking for a few seconds and centrifugation at 1500 g and 4° C. for 10 minutes, 150 μl/well of Optiphase ‘Super Mix’ scintillation liquid was mixed with 50 μl of supernatant of each sample and the radioactivity was measured in a MicroBeta counter (Wallac, Turku, Finland). Data were evaluated by a sigmoidal dose-response curve (Prism, GraphPad Software Inc.) to estimate the concentration of competitor at half-maximal specific binding (IC50). […] The selectivity for ERα and ERβ was obtained from the ratio R of the IC50 for ERα to the IC50 for ERβ for each test compound.
Data set [3] addresses T1, purified full-length recombinant human ERα (Homo sapiens, UniProt P03372).
T1 sequence (P03372 1-595): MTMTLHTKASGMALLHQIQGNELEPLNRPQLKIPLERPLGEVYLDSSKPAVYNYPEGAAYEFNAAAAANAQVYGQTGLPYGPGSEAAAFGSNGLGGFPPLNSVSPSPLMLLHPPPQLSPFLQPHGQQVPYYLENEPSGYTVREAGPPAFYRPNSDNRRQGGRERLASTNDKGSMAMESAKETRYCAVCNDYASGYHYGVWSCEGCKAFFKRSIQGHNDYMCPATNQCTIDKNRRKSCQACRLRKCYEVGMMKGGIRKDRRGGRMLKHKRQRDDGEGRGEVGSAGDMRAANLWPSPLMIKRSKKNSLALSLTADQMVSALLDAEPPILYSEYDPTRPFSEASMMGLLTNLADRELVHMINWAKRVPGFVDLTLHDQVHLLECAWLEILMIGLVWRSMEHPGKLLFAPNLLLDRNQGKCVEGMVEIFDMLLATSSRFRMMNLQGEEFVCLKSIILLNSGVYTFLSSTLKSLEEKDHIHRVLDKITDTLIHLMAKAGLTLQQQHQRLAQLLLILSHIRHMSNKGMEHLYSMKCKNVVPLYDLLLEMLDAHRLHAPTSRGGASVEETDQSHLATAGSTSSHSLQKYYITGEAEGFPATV
In words: Estrogen receptor α competitive radiometric binding assay ([3H]-E2).

Data set [4] concerns ovariectomized rats. Kind of data set: Hot flush model in vivo: tail skin temperature, uteri and body weight.
For data set [5], the system named is human endometrial adenocarcinoma Ishikawa cells. Kind of data set: Estrogenic and anti-estrogenic activities in vitro: induction of alkaline phosphatase (APase) activity. The data set is classed as cell-based. In short, it runs like this: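 Ishikawa cells in phenol red-free DMEM with 5% charcoal-stripped dFCS; after incubation, APase measured via 5 mM p-nitrophenyl phosphate hydrolysis at pH 9.8, read at 405 nm after 15-60 min at room temperature. EC50 (estrogenic) and IC50 (anti-estrogenic) from sigmoidal dose-response curves.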

Setting [6] is: ratio of IC50s of E2 and competitor, E2 set at 100%.

Like-named read-outs stand apart in the source and are kept apart here.

Sequence of purified full-length recombinant human ERβ (Q92731 whole entry): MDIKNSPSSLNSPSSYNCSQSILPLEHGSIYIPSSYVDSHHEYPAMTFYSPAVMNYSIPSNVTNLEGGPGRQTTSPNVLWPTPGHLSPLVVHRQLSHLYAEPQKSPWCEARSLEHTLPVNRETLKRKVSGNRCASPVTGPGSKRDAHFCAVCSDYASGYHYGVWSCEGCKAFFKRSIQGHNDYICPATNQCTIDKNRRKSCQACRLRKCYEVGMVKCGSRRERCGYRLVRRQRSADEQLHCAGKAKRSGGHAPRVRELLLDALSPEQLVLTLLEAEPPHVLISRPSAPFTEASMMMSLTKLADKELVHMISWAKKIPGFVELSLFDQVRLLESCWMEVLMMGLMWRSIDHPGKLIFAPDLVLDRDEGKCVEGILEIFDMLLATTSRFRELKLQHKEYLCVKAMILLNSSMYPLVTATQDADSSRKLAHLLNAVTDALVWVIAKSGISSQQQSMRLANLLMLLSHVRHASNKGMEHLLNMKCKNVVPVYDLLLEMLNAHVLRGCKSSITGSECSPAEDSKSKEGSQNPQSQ

`Oc1ccc2c(C3CCCC3)n[nH]c2c1` [Ex 23, 3-cyclopentyl-1H-indazol-6-ol]: in the data set with ovariectomized rats [1], the side-effects on uteri entry is listed as “without deleterious side-effects on uteri”. Also, the change in vivo at 3 mg with Prepubescent female rats (Rattus norvegicus, po, 72 h, Table 4, read-out: % stimulation vs vehicle (uterus weight)) was 12%. The change in vivo at 0.3 mg in the data set on Prepubescent female rats (Rattus norvegicus, po, 72 h, Table 5, orally 0.3 mg/rat/day for 3 days, read-out: % stimulation vs vehicle (uterus weight)) was -13%. Besides, the change in vivo at 1 mg in the data set on Prepubescent female rats (Rattus norvegicus, po, 72 h, Table 5, orally 1 mg/rat/day for 3 days, read-out: % stimulation vs vehicle (uterus weight)) is -5%. For the same compound, the change in vivo at 3 mg in the data set with Prepubescent female rats (Rattus norvegicus, po, 72 h, Table 5, read-out: % stimulation vs vehicle (uterus weight)) was -4%. Also, the change in vivo at 10 mg with Prepubescent female rats (Rattus norvegicus, po, 72 h, Table 5, orally 10 mg/rat/day for 3 days, read-out: % stimulation vs vehicle (uterus weight)) is 20%. Besides, the “in vivo estrogenic activity after oral administration” value with Prepubescent female rats (in words) was “weak in vivo estrogenic activity”. Also, the “uterotrophicity after oral administration” value in the data set on Prepubescent female rats (up to a 3 mg/animal/day dosage, in words) is recorded as “lack of uterotrophicity”. In addition, in data set [2], the IC50 stood at 0.0418 ± 0.0071 µM. In data set [2] (in words), the “ligand to estrogen receptor beta” value is reported as “potent ligand” and the “selectivity for the human recombinant estrogen receptor β” value is recorded as “marked selectivity”. Besides, in data set [2] (setting [6]), the “RBA (%) Mean ± S.E.M, ER β” value came out at 10.4 ± 4.0%. The “R (IC50s) αβ” value in data set [2] (ratio of the IC50 for ERα to the IC50 for ERβ) is recorded as 31.9. For the same compound, in data set [3], the 50% inhibitory concentration (IC50) came to 1.33 ± 0.268 µM. In data set [3] (setting [6]), the “RBA (%) Mean ± S.E.M, ER α” value is 0.2 ± 0.05%. Moreover, in the data set with ovariectomized rats [4] (0.3 mg/rat/day), the “TST Variation day 1 vs day 0” value is listed as −0.8 C. °, the “TST Variation day 4 vs day 0” value is on record as −2.1 C. ° and the “TST Variation day 7 vs day 0” value is given as −1.9 C. °. Further, the “tail skin temperature of ovariectomized rat” value with ovariectomized rats [4] (in words) is on record as “decreased tail skin temperature”. The 50% effective concentration (EC50) in data set [5] (Homo sapiens, Ishikawa, 96 h, compound alone, four days, ND = not detected, read-out: Estrogenic activity EC50 (nM) ± S.E.M) was 1700 ± 168 nM. The “estrogenic effect in alkaline phosphatase activity in the Ishikawa cell model” value in data set [5] (in words) is “weak estrogenic effect”.
